Data taken from patent publication US20250262195A1, “METHOD TO PREVENT AND TREAT DIABETIC RETINOPATHY BY CALCIUM CHANNEL BLOCKERS, ANGIOTENSIN CONVERTING ENZYME INHIBITORS, AND ANGIOTENSIN RECEPTOR BLOCKERS” (priority 2022, published 2025).

Tests used:
Type in all cases: in vivo, human
[1] = tested on: patients with diabetic retinopathy; assay: Experimental use: vasodilators applied to patients' eyes, progression monitored at follow-up appointments; settings: applied to the eye; based on prior experience and observation during treatment of patients
[2] = tested on: patient successfully treated for diabetic retinopathy; assay: Prevention of recurrence in a patient successfully treated for diabetic retinopathy, one eye treated and the other left untreated; settings: untreated eye shows signs of recurrence
Description: A composition comprising the calcium channel blocker nifedipine is directly applied to the vitreous surface of one eye while the other eye is left untreated. […] A composition comprising the ACE inhibitor enalapril is directly applied to the vitreous surface of one eye while the other eye is left untreated. […] A composition comprising the angiotensin receptor blocker losartan is directly applied to the vitreous surface of one eye while the other eye is left untreated. […] A composition comprising the calcium channel blocker nifedipine is applied to the eye by intravitreal or intraocular injection while the other eye is left untreated. […] A composition comprising the ACE inhibitor enalapril is applied to the eye by intravitreal or intraocular injection while the other eye is left untreated. […] A composition comprising the angiotensin receptor blocker losartan is applied to the eye by intravitreal or intraocular injection while the other eye is left untreated.

[3] = tested on: patient diagnosed with diabetic retinopathy; assay: Treatment of a patient diagnosed with diabetic retinopathy, one eye treated and the other left untreated
Description: A patient is diagnosed with diabetic retinopathy. A composition comprising the calcium channel blocker nifedipine is directly applied to the vitreous surface of one eye while the other eye is left untreated. […] A patient is diagnosed with diabetic retinopathy. A composition comprising the ACE inhibitor enalapril is directly applied to the vitreous surface of one eye while the other eye is left untreated. […] A patient is diagnosed with diabetic retinopathy. A composition comprising the angiotensin receptor blocker losartan is directly applied to the vitreous surface of one eye while the other eye is left untreated. […] A patient is diagnosed with diabetic retinopathy. A composition comprising the calcium channel blocker nifedipine is applied to the eye by intravitreal or intraocular injection while the other eye is left untreated. […] A patient is diagnosed with diabetic retinopathy. A composition comprising the ACE inhibitor enalapril is applied to the eye by intravitreal or intraocular injection while the other eye is left untreated. […] A patient is diagnosed with diabetic retinopathy. A composition comprising the angiotensin receptor blocker losartan is applied to the eye by intravitreal or intraocular injection while the other eye is left untreated.

[4] = tested on: patient with diabetic retinopathy; assay: Topical ramiprilat formulation to the eye of a patient with diabetic retinopathy
Description: In this example, a patient with diabetic retinopathy is administered a topical formulation comprising ramiprilat to the eye. […] The diabetic retinopathy is therefore treated by the topical formulation.

[5] = composition applied by intravitreal or intraocular injection
[6] = composition directly applied to the vitreous surface of one eye

CCCC(=O)OCOC(=O)C1=C(C)NC(C)=C(C(=O)OC)C1c1cccc(Cl)c1Cl (stereo not drawn) [clevidipine]
effectiveness for the treatment of diabetic retinopathy or its symptoms [1]: effective

CCOC(=O)[C@H](CCc1ccccc1)N[C@@H](C)C(=O)N1CCC[C@H]1C(=O)O [enalapril]
development (recurrence) of diabetic retinopathy in the treated eye [2, 5]: not develop diabetic retinopathy | development (recurrence) of diabetic retinopathy in the treated eye [2, 6]: not develop diabetic retinopathy | symptoms of diabetic retinopathy, treated eye compared to untreated eye [3, 5]: reduced symptoms of diabetic retinopathy | symptoms of diabetic retinopathy, treated eye compared to untreated eye [3, 6]: reduced symptoms of diabetic retinopathy

COC(=O)C1=C(C)NC(C)=C(C(=O)OC(C)C)C1c1cccc2nonc12 (stereo not drawn) [isradipine]
effectiveness for the treatment of diabetic retinopathy or its symptoms [1]: effective

CCCCc1nc(Cl)c(CO)n1Cc1ccc(-c2ccccc2-c2nn[nH]n2)cc1 [losartan]
development (recurrence) of diabetic retinopathy in the treated eye [2, 5]: not develop diabetic retinopathy | development (recurrence) of diabetic retinopathy in the treated eye [2, 6]: not develop diabetic retinopathy | symptoms of diabetic retinopathy, treated eye compared to untreated eye [3, 5]: reduced symptoms of diabetic retinopathy | symptoms of diabetic retinopathy, treated eye compared to untreated eye [3, 6]: reduced symptoms of diabetic retinopathy

Ramiprilat
capillary blood supply to the eye [4]: increases the capillary blood supply | capillary networks in the eye [4]: grows capillary networks | diabetic retinopathy outcome [4]: treated | intraocular pressure [4]: reduction in intraocular pressure | optic nerve [4]: repair to the optic nerve
